According to US10590116B2, “3-indolyl furanoids as inhibitors of matrix metalloproteinase-9 for prevention of gastric ulcer and other inflammatory diseases” (Council of Scientific & Industrial Research, priority 2017, dated 2020):

Legend:
[1] = test system: lipid peroxide content (TBARS); experiment: Measurement of lipid peroxidation (TBARS) in gastric tissue homogenate; assay type: in vivo; details: ulcerated mice
Description: The fundic stomach homogenate was used for measurement of lipid peroxide content as thiobarbituric acid reactive species (TBARS).
The cytosolic fraction from the gastric tissue homogenate was used for measurement of lipid peroxide content as thiobarbituric acid reactive species (TBARS). Briefly, 1 mL of the cytosolic fraction was allowed to react with 2 mL of TCA-TBA-HCl (15% TCA, 0.375% TBA, 0.25 N HCl) reagent, heated in a boiling water-bath for 15 min, cooled and centrifuged. The absorbance of the supernatant was measured for nano moles of TBARS at 535 nm (ε=1.5×10^5/M/cm).

[2] = test system: apoptosis of gastric mucosa; experiment: TUNEL assay of gastric tissue sections; assay type: in vivo; details: indomethacin ulcerated mice
Source text: To understand the fine information about the physical condition (the level of damage and/or intactness) of cells tissues under observation, different tissue samples were fixed in 10% formalin and embedded in paraffin. Tissue sections were deparaffinized with xylene and rehydrated with descending alcohol series. The sections were cut using microtome, and stained with hematoxylin and eosin, or subjected to Terminal deoxynucleotidyl transferase-mediated dUTP Nick End Labeling (TUNEL) assay by using a in situ apoptosis detection kit. Fixation, permeabilization, and staining were carried out in exact parallel to ensure comparative significance among normal, ulcerated and compound 5 treated groups. […] Images at 10× and 40× magnification were captured using Camedia software (E-20P 5.0 Megapixel) and processed under Adobe Photoshop version 7.0 (FIG. 1B).
Tissue sections were stained with hematoxylin and eosin stain. Fixation, permeabilization, and staining were carried out in parallel in normal, ulcerated and compound 5 treated groups to ensure comparative significance among different treatment. TUNEL assay is used for detection and quantification of apoptosis in gastric tissues, based on labelling of DNA strand breaks. Terminal deoxynucleotidyl transferase-mediated dUTP Nick End Labeling (TUNEL) assay was performed by using an in situ apoptosis detection kit. […]

COc1cccc2[nH]cc(-c3cc(-c4ccccc4)oc3-c3ccccc3)c12 [compound 5, 4-methoxy-3-(2,5-diphenylfuran-3-yl)-1H-indole]
Lipid peroxidation [1]: 0.47±0.15 nmol TBARS/mg tissue | Lipid peroxidation ([1]; listed as Compound 5): 0.47 ± 0.15 nmol TBARS/mg tissue | apoptosis of gastric mucosa (TUNEL) [2]: suppression of apoptosis
